# Reference: patent publication US20230141863A1, “Small Molecule Inhibitors Targeting the Sodium Channel Tamoxifen Receptor and Uses Thereof” (Northwestern University, priority 2021, published 2023)
# “Also recorded” adds a separate entry of the source.
# What was measured:
# [1] = tested on: T1, endogenous voltage-gated sodium channels expressed in murine DRG neurons; assay: Whole cell voltage clamp of endogenous sodium currents (INa) in cultured DRG sensory neurons; type: cell-based, mouse
# T1 construct: other: waiting for 5 minutes after removal; ND-Tam potency against DRG INa (IC50); other: DRG neurons, −60 mV holding potential; other: 3 μM ND-Tam treatment; other: DR
# Method: FIG. 1. Tamoxifen metabolites inhibit endogenous voltage-gated sodium channels expressed in murine DRG neurons. A) DIC and fluorescence images of voltage clamped DRG neuron isolated and cultured from an Nav1.8-tomato mouse. Continuity with the patched neuron is indicted by the GFP (Alexa Fluor 488 dye 1 nM) loaded into the glass patch electrode. B) Top, exemplar sodium currents (INa) recorded in control saline and two concentrations of N-desmethyl tamoxifen (ND-Tam) from a voltage-clamped DRG neuron. INa was activated by 0.2 Hz train of 50 ms depolarizations to −10 mV from −100 mV holding potential. Bottom, time course of peak INa inhibition during control conditions and after 5 minutes of extracellular ND-Tam treatment. C) Resulting drug concentration-INa inhibition relationship for ND-Tam fit to the Hill equation. Open symbols represent responses from individual cells and filled symbols represent average response per concentration. Error is equal to S.E.M. (n=11) D) A comparison of the percent INa recovery after 3-10 μM ND-Tam or 1 mM carbamazepine (CBZ) inhibition. INa recovery was assessed after 5 minutes in control saline post drug exposure. Fewer INa recovered from ND-Tam exposure compared to CBZ exposure, 14.3±5.4% and 47.2±9.6%, respectively, and was statistically significant (P=0.03). Error is equal to S.E.M. and the number of cells tested per treatment group is indicated within the parentheses.
# Previously, a unique receptor site for tamoxifen analogues within the prokaryotic sodium channel isolated form Magnetococcus marinus (NavMs)^36 (Sula et al) was crystallographically identified. Because drug occupancy of this receptor caused long lasting inhibition of the NavMs INa, the inventors wondered if these properties would translate into effects against sensory neuron Na s which transmit pain signals. Accordingly, =the potency of ND-Tam and 4OH-Tam was tested against endogenously expressed Na s in cultured DRG sensory neurons isolated from Nav1.8-tdTomato mice by conducting whole cell voltage clamp recordings (FIG. 1A, B). Sodium currents were activated by a 0.2 Hz train of −10 mV depolarizations from a holding potential of −100 mV. The externally applied drug effect was determined after three to five minutes of application of each drug concentration (FIG. 1B). […] As discussed in the introduction, total DRG INa is conducted by the Nav1.1, Nav1.6, Nav1.7, Nav1.8 and Nav1.9 subtypes. To determine if there is any specificity in the potency of tamoxifen analogues against Nav subtypes, human orthologues were heterologously expressed in cell lines (HEK and CHO co-expressing hb1 subunits), and conducted voltage-clamp experiments, as previously performed in the DRG neurons.
# Dorsal root ganglia were isolated using a modified version of the previously described protocol (PMID: 26864470). All animal procedures were approved by the Institutional Animal Care and Use Committee at the Feinberg Medical School, Northwestern University. The spinal columns of 4-6-week-old […] or Nav1.8-Tomato mice (Nav1.8-Td) were removed and DRG neurons from all spinal levels were isolated for primary culture (PMID: 33827672, PMID: 31351964). The collected DRGs, containing both neuronal and non-neuronal cells, were acutely dissociated in DMEM with collagenase IV (2 mg/mL) for 30 minutes, followed by papain (25 U/mL) for 30 minutes. The cells were then triturated, filtered through a 40 μm cell strainer to remove non-dissociated cells, and washed with DMEM. The DRGs were resuspended in 70 μL of pre-warmed growth medium (DMEM F12+Glutamax supplemented with 0.5% FBS, 0.5% penicillin/streptomycin, 1% N-2 supplement, and β-NGF ([…]) added on the day of use) and plated on poly-l-lysine (10 mg/mL) and laminin (25 μg/mL) prepared coverslips. The DRGs were incubated at 37° C. for 2-4 hours before more growth medium was added to the wells. […]
# [2] = tested on: mice with knee hyperalgesia post DMM surgery; assay: In vivo osteoarthritis pain model (DMM), knee hyperalgesia after intra-articular injection; parameters: species or system mouse
# estrogen receptor (ER) = target: T2, estrogen receptor (ER) (Homo sapiens, UniProt P03372); details: reference 35; cited from earlier work
# T2 sequence (P03372 1-595): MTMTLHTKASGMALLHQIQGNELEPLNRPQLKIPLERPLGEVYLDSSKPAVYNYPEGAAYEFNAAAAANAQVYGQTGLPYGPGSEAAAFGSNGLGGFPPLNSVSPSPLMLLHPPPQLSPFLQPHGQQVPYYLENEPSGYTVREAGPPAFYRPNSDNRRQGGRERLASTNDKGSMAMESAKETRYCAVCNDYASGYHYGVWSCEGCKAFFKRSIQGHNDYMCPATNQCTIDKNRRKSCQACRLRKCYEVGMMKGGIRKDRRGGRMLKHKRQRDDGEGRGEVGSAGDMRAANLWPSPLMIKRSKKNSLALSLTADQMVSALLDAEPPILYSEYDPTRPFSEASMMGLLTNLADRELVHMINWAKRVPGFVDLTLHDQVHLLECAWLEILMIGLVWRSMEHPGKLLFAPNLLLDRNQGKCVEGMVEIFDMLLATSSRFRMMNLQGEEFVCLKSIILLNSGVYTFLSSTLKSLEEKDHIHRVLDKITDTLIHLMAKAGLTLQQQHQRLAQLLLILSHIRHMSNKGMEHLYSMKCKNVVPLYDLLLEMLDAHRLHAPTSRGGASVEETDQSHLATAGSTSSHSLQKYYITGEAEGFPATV
structure (smiles),measurement,setting,value
"CC/C(=C(\c1ccccc1)c1ccc(OCCNC)cc1)c1ccccc1 [ND-Tam, 2-[4-[(Z)-1,2-diphenylbut-1-enyl]phenoxy]-N-methylethanamine]",block of the total INa,[1]; 3 μM ND-Tam treatment,≈ 45%
same,change in the half-maximal activation of conductance (GV1/2),[1]; 3 μM ND-Tam treatment,No change
same,IC50,"[1]; DRG neurons, −100 mV holding potential, 0.2 Hz train of −10 mV depolarizations, read-out: half maximal potency of INa inhibition (IC50)",1700 nM
same,voltage-dependence of inactivation (V1/2) after drug treatment,"[1]; ND-Tam (3 μM), control −47.6±0.4 mV",−51.9±0.4 mV
same,half-maximal conductance-voltage relationship (V1/2),"[1]; ND-Tam conditions (3 μM), control −38.3±0.3 mV",−37.7±0.4 mV
same,shift in voltage dependence of inactivation,"[1]; after 3 μM ND-Tam treatment, P=0.01",−8 mV
same,inhibition of sodium currents recorded from DRG neurons (in words),"[1]; tamoxifen analogs and fragments, FIG. 7B",inhibited sodium currents
same,INa that did not recover after removing drug from the bath,[1]; waiting for 5 minutes after removal,86±5%
same,increase in potency when neuron membranes were held at more depolarizing potentials,"[1]; −40, −60 and −100 mV holding potentials",15-44 ×
same,knee hyperalgesia versus vehicle (in words),"[2]; 50 μM (~0.002 mg/kg) intra-articular, vehicle 50% EtOH, 30 minutes after injection, P=0.008",rapidly inhibited knee hyperalgesia pain compared to injection of vehicle; also recorded: provided relief from hyperalgesia compared to vehicle
same,area under the curve analysis of withdrawal thresholds (in words),"[2]; 50 μM intra-articular, 0-3 hours after injection",performs similar to CBD and to lidocaine over time
same,"knee hyperalgesia versus vehicle, direct comparison study (in words)","[2]; 50 μM intra-articular, vehicle 0.1% DMSO, 30 minutes after injection",effectively inhibited knee hyperalgesia
same,knee withdrawal threshold versus vehicle control (in words),"[2]; 50 μM intra-articular, vehicle 0.1% DMSO, through 3 hours after injection",remained elevated compared to vehicle control through 3 hours after injection
same,"affinity for the ER, times lower than 4OH-Tam",estrogen receptor (ER),~100 times
